Measured values reported in patent US20210386752A1, “Uses of Electron Transport Chain Complex I or Complex II Inhibitors in Treating Cancer, Combination Therapies, and Diagnostic Methods Related Thereto” (Emory University, priority 2020, published 2021).
Where two headings read alike, the source gives them in different places.

What was measured:
[1] = tested on: venetoclax-resistant MM lines; assay: Venetoclax sensitization of resistant MM lines by ETC inhibitor cotreatment, viability by AnnexinV/DAPI staining; format: cell-based
Protocol: Cell viability assessed by AnnexinV/DAPI staining.
Given the unique role of Complex II in directly connecting the TCA cycle to the ETC, the impact of selectively inhibiting either the SDH or SQR activities of Complex II on venetoclax sensitivity was tested. The venetoclax sensitization effects of TTFA (SQR inhibitor) or 3NPA (SDH inhibitor) were tested on eight venetoclax-resistant MM lines (FIG. 3A-3H). 3NPA is a structural analog of succinate, which binds irreversibly with SDH inhibiting FAD reduction and fumarate production while TTFA is a direct Qp site inhibitor. […] The efficacy of the TTFA-venetoclax cotreatment strategy was also tested in a colony-forming unit assay. MM lines (L363 and KMS11) were cultured in an agar matrix with single agents or the combination.
To further inquire whether Complex I inhibition could also sensitize MM cells to venetoclax, a Complex I inhibitor was tested ([…]).

[2] = tested on: bone marrow plasma cells and memory B cells; settings: murine immune system; cited from earlier work
[3] = tested on: MM; assay: IACS-010759 in combination with anti-myeloma agents, cell death in MM cells; format: cell-based
[4] = tested on: ATF4, NOXA; assay: Immunoblot of whole cell lysates for ATF4 and NOXA; format: cell-based; settings: 25 nM IACS-010759, 24 h
[5] = tested on: non-MM cells contained within the aspirate
Protocol: Bone marrow aspirate samples from 50 MM patients were treated with three doses of venetoclax (0.01, 0.1 and 0.5 μM) or TTFA (100 μM), or the combination for 24 h and cell death was assessed by AnnexinV staining.
The efficacy of IACS-010759 in sensitizing was tested in […] patient samples to venetoclax.

[6] = tested on: MCL-1; assay: MCL-1 expression in MM cells; format: cell-based; settings: KMS12PE
[7] = tested on: CD38+ CD45− gated MM cells from myeloma patient bone marrow aspirates; assay: Ex vivo venetoclax sensitivity of myeloma patient samples, Annexin V staining; format: cell-based, human; settings: nine patient samples, IACS-010759
Protocol: CD38-PE and CD45-APC-Cy7 were used to gate myeloma cells. n=50 biological independent samples.
Bone marrow aspirate samples from 50 MM patients were treated with three doses of venetoclax (0.01, 0.1 and 0.5 μM) or TTFA (100 μM), or the combination for 24 h and cell death was assessed by AnnexinV staining. […] A venetoclax ICso <0.1 μM is characterized as a sensitive sample.
Bone marrow aspirates or peripheral blood samples from consenting myeloma patients were diluted to 25 mL with PBS and over laid on lymphocyte separation media. Following centrifugation, the collected buffy coat was washed with PBS and resuspended in culture medium. Cells subject to various treatments were stained with anti-CD38-phyocerythrin and anti-CD45-allophycocyanin-Cy7 to identify MM cells. CD138+ cells were purified using MACS CD138+ human microbeads. IC50S of venetoclax alone or in combination with TTFA/IACS-010759 in myeloma samples were calculated using nonlinear regression (curve-fit) analysis under agonist vs. normalized response with variable slope.

[8] = tested on: AML; settings: targeting Complex II; cited from earlier work
[9] = tested on: L363, KMS11 and KMS21BM; assay: ATP levels after ETC complex III, IV, V inhibition; format: cell-based; settings: after 24 h, at the doses used
Protocol: Experiments were performed to determine whether inhibition of Complex III, IV and V could also sensitize resistant MINI to venetoclax.

[10] = tested on: MM cell lines; assay: Cell death of MM cell lines with single-agent venetoclax, AnnexinV/DAPI flow cytometric staining; format: cell-based; settings: 0.5 μM venetoclax, 24 h, panel of MM lines
Protocol: Percent live normalized to vehicle control, with cell lines grouped by sensitivity. n=3 independent experiments.
Differential venetoclax sensitivity was assessed in a panel of MM lines. […] The pattern of increased sensitivity of these cell lines was selective for venetoclax and not detected with other standard myeloma therapeutics i.e. bortezomib and melphalan or sensitivity to the MCL-1 inhibitor […] as reported for the KMS12BM, KMS12PE, KMS11, MM.1 S, JJN3, RPMI-8226 and L363 lines.

[11] = tested on: MM patients; settings: cited from earlier work
[12] = L363, KMS11, KMS21BM, doses reducing ATP by about 50% after 24 h

Molecule: O=C(O)CC[N+](=O)[O-] [3NPA]
- sensitivity to venetoclax on cotreatment ([1]; eight venetoclax-resistant MM lines, 24 h): less effective compared to TTFA

Molecule: CN(C)CC[C@H](CSc1ccccc1)Nc1ccc(S(=O)(=O)NC(=O)c2ccc(N3CCN(Cc4ccccc4-c4ccc(Cl)cc4)CC3)cc2)cc1[N+](=O)[O-] [ABT-737]
- effect on plasma cells and B cells [2]: inhibits the establishment of newly arising bone marrow plasma cells and memory B cells with no effect on pre-existing plasma cells, or germinal center B cells

Molecule: Cc1nc(-c2nc(-c3ccc(OC(F)(F)F)cc3)no2)nn1Cc1cccc(N2CCC(S(C)(=O)=O)CC2)c1 [IACS-010759, 5-(5-methyl-1-(3-(4-(methylsulfonyl)piperidin-1-yl)benzyl)-1H-1,2,4-triazol-3-yl)-3-(4-(trifluoromethoxy)phenyl)-1,2,4-oxadiazole]
- IC50 of venetoclax on cotreatment ([1]; 25 nM IACS-010759, tested cell lines): significantly reduced the IC50 of venetoclax
- sensitization to 0.5 μM venetoclax ([1]; KMS11, L363, KMS21BM, increasing doses of IACS-010759, 24 h): sensitized cells to 0.5 μM venetoclax
- sensitization to venetoclax ([1]; KMS21BM, TTFA at 100 μM): enough to sensitize KMS21BM to venetoclax
- effect on carfilzomib (CFZ) response ([3]; 24 hr dose response): antagonizes MM to proteasome inhibitor carfilzomib
- effect on bortezomib induced cell death ([3]; L363, 24 hr treatment): antagonizes MM to proteasome inhibitor bortezomib induced cell death
- effect on melphalan induced cell death ([3]; L363, 24 hr treatment): sensitizes myeloma to melphalan induced cell death
- effect on efficacy of dexamethasone + venetoclax ([3]; MM): increases efficacy of dexamethasone (Dex) +Ven
- effect on sensitivity to dexamethasone ([3]; MM): increases sensitivity of MM to Dex
- sensitization to venetoclax (ABT-199) ([3]; t(11;14) MM, KMS12PE, 24 hr Ven treatment): sensitizes t(11;14) MM to venetoclax
- protein expression of ATF4, NOXA [4]: induction of ATF4 and NOXA
- viability of non-MM cells [5]: minimal impact on the viability of non-MM cells
- MCL-1 expression [6]: reduces MCL-1
- samples with >50% reduction in the IC50 of venetoclax [7]: five of the samples
- samples with increased venetoclax sensitivity [7]: Eight out of nine samples showed increased sensitivity

Molecule: Nc1ncn([C@@H]2O[C@H](CO)[C@@H](O)[C@H]2O)c(=O)n1 [azacitidine]
- venetoclax sensitivity [8]: induced venetoclax sensitivity

Molecule: CC[C@H]1/C=C/C=C/C[C@@H](C)[C@H](O)[C@@](C)(O)C(=O)[C@@H](C)[C@H](O)[C@@H](C)C(=O)[C@@H](C)[C@H](O)[C@@H](C)/C=C/C(=O)O[C@@H]2[C@H](C)[C@H](CC1)O[C@]1(CC[C@H](C)[C@H](C[C@@H](C)O)O1)[C@H]2C [oligomycin]
- sensitization to venetoclax [1, 12]: sensitized L363, KMS11 and KMS21BM to venetoclax
- reduction of ATP levels [9]: about 50%

Molecule: C/C=C(\C)[C@H](O)[C@H](C)/C=C(C)/C=C/C/C(C)=C/Cc1nc(OC)c(OC)c(O)c1C [piericidin]
- sensitization to venetoclax ([1]; resistant MM cell lines, Complex I inhibitor): also sensitized resistant MM cell lines to venetoclax

Molecule: [N-]=[N+]=[N-] [sodium azide]
- reduction of ATP levels [9]: about 50%

Molecule: CC1(C)CCC(CN2CCN(c3ccc(C(=O)NS(=O)(=O)c4ccc(NCC5CCOCC5)c([N+](=O)[O-])c4)c(Oc4cnc5[nH]ccc5c4)c3)CC2)=C(c2ccc(Cl)cc2)C1 [venetoclax, 2-((1H-pyrrolo[2,3-b]pyridin-5-yl)oxy)-4-(4-((4′-chloro-5,5-dimethyl-3,4,5,6-tetrahydro-[1,1′-biphenyl]-2-yl)methyl)piperazin-1-yl)-N-((3-nitro-4-(((tetrahydro-2H-pyran-4-yl)methyl)amino)phenyl)sulfonyl)benzamide]
- cytotoxicity (cell death) [10]: significant cytotoxicity primarily in t(11;14) lines
- fraction of MM patients responding to single agent ([11]; all MM patients): approximately 7%
- fraction of patients venetoclax sensitive ([11]; non-t(11;14) patients): < 6%
- fraction of patients venetoclax sensitive ([11]; t(11;14) patients): ~40%

Molecule: antimycin
- sensitization to venetoclax [1, 12]: sensitized L363, KMS11 and KMS21BM to venetoclax
- reduction of ATP levels [9]: about 50%
